According to PubChem BioAssay AID1648 (Sanford-Burnham Center for Chemical Genomics, 2009):
Calls of active or inactive are those of the source. No rule for the calls is given here.

Molecular target: Serine/threonine-protein kinase mTOR (Homo sapiens) (UniProt P42345)
Assay: binders of mTOR FRB domain, biophysical, NMR (AID 1648)
Details: NMR binding to FRB domain, chemical shift

Serine/threonine-protein kinase mTOR (Homo sapiens), sequence (P42345 2015-2114): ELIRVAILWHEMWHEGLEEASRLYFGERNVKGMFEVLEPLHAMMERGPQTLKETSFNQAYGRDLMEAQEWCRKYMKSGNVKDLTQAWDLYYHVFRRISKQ

Row | Compound | Kd
1 | CC(C)Oc1ccc(NC(N)=O)cc1 | > 4 mM (inactive)
2 | CC(=O)OC[C@H]1O[C@@H](Oc2cc(OC(C)=O)c3c(=O)cc(-c4ccc(OC(C)=O)cc4)oc3c2)[C@H](OC(C)=O)[C@@H](OC(C)=O)[C@@H]1OC(C)=O | > 4 mM (inactive)
3 | CN1CCC(N2CCN(C)CC2)CC1 | > 4 mM (inactive)
4 | CC(=O)O[C@@H]1C[C@@]2(C)[C@H](c3ccoc3)C[C@H]3O[C@]32[C@]2(C)C(=O)C(O)=C3C(C)(C)C(=O)C=C[C@]3(C)C12 (stereo partly specified) | > 4 mM (inactive)
5 | CC(=O)N1CC2(C)CN(C(C)=O)CC(C)(C1)C2O (stereo unspecified) | > 4 mM (inactive)
6 | Cc1cc(C(=O)c2c(C)nn(C)c2Cl)n(C)n1 | > 4 mM (inactive)
7 | O=C(Cc1cccs1)Nc1ccon1 | > 4 mM (inactive)
8 | O=C(CCc1ccc(O)cc1)c1c(O)cc(O)cc1O | > 4 mM (inactive)
9 | Cc1nnc2n(c1=O)N=C(c1ccccc1)CS2 | > 4 mM (inactive)
10 | CN(C)/C=N/S(=O)(=O)c1ccccc1 | > 4 mM (inactive)
11 | O=C(O)c1ccc2occc2c1 | > 4 mM (inactive)
12 | COC(=O)c1oc2ccc(Cl)cc2c1NC(C)=O | > 4 mM (inactive)
13 | CC1(C)CC[C@]2(C(=O)O)CC[C@]3(C)C(=CCC4[C@@]5(C)CC[C@H](O)[C@@](C)(CO)C5CC[C@]43C)C2C1 (stereo partly specified) | > 4 mM (inactive)
14 | NC(=O)CSc1nc2ccccc2c(=O)[nH]1 | > 4 mM (inactive)
15 | Cc1cc(C)n(-c2ccc(N)cc2)n1 | > 4 mM (inactive)
16 | O=C(O)Cn1cc(C(=O)C2CC2)c2ccccc21 | > 4 mM (inactive)
17 | COc1ccc(C2=CC(=O)C=CC2=O)cc1 | > 4 mM (inactive)
18 | O=c1cc(O)nc(SCc2ccccc2)[nH]1 | > 4 mM (inactive)
19 | CC(=O)Nc1ccc(-c2ccc3nncn3n2)cc1 | > 4 mM (inactive)
20 | CC1(C)Cc2nc3n[nH]c(N)c3cc2CO1 | > 4 mM (inactive)
21 | Nc1cncc(C(=O)O)c1 | > 4 mM (inactive)
22 | NC(=O)c1ccsc1NC(=O)c1ccccc1[N+](=O)[O-] | > 4 mM (inactive)
23 | N#Cc1nc(-c2cccs2)oc1N1CCOCC1 | > 4 mM (inactive)

Row | Compound | Kd
24 | Cc1nnc(N2CCN(Cc3ccccc3)CC2)[nH]c1=O | > 4 mM (inactive)
25 | O=C1CSC(=S)N1Cc1cccnc1 | > 4 mM (inactive)
26 | CC(C)c1nnc(N)s1 | > 4 mM (inactive)
27 | O=C(O)c1csc2ccccc12 | > 4 mM (inactive)
28 | NC12CC3CC(C1)CC(C(=O)O)(C3)C2 | > 4 mM (inactive)
29 | O=C(O)C(CO)c1ccccc1 (stereo unspecified) | > 4 mM (inactive)
30 | C/C=C(\C)C(=O)O[C@H]1C[C@@H](OC(C)=O)[C@@]2(C(=O)OC)CO[C@@H]3C2[C@]12CO[C@](O)(C(=O)OC)[C@H]2[C@](C)(C12O[C@@]1(C)[C@H]1C[C@@H]2OC2OC=C[C@@]21O)[C@@H]3O (stereo partly specified) | > 4 mM (inactive)
31 | CC(=O)N1N=C(N)SC1c1cccnc1 (stereo unspecified) | > 4 mM (inactive)
32 | O=C(O)C1CCCN1Cc1c[nH]c2ccccc12 (stereo unspecified) | > 4 mM (inactive)
33 | COc1ccc2c(c1)OC/C(=C\c1ccc(OC)c(O)c1)C2=O | > 4 mM (inactive)
34 | O=C(c1ccccc1)N1CCOCC1 | > 4 mM (inactive)
35 | CNC[C@@H](O)c1ccc(O)c(O)c1 | > 4 mM (inactive)
36 | COCC(=O)Nc1ccc(C)c(Cl)c1 | > 4 mM (inactive)
37 | COc1ccc(NC(=O)c2ccc[n+]([O-])c2)cc1 | > 4 mM (inactive)
38 | O=C(Oc1ccc(-c2nnco2)cc1)N1CCCCC1 | > 4 mM (inactive)
39 | c1ccn(Cc2ccncc2)c1 | > 4 mM (inactive)
40 | C#CCCCCCCCCCCCc1ccco1 | > 4 mM (inactive)
41 | O=C1CCCN1C(=O)CN1CCOCC1 | > 4 mM (inactive)
42 | Cn1nnc2cc(CN)ccc21 | > 4 mM (inactive)
43 | O=C(NCc1ccccc1)c1ccc[n+]([O-])c1 | > 4 mM (inactive)
44 | COc1cc2c(cc1OC)C1Cc3ccc(OC)c(OC)c3CN1CC2 (stereo unspecified) | > 4 mM (inactive)
45 | NC(=O)C1CC2C=CC1C2 (stereo unspecified) | > 4 mM (inactive)
46 | COC[C@]12CN(C=O)C3[C@@H]4[C@H](OC)C1[C@]3(C1CC3(O)C(OC)C(O)C4(OC(C)=O)C1C3OC(=O)c1ccccc1)[C@@H](OC)C[C@H]2O (stereo partly specified) | > 4 mM (inactive)

Row | Compound | Kd
47 | COc1cc(C(=S)N2CCOCC2)ccc1O | > 4 mM (inactive)
48 | O=C(NCc1ccncc1)c1cccc(F)c1 | > 4 mM (inactive)
49 | O=C(Nc1cccc(Cl)c1)c1cnn2cccnc12 | > 4 mM (inactive)
50 | Cc1ccc(C(=O)CS(C)(=O)=O)cc1 | > 4 mM (inactive)
51 | Cc1ccc(C(=O)N2CCOCC2)cc1Cl | > 4 mM (inactive)
52 | CC1(C)CC[C@]2(C)CC[C@]3(C)C(=CCC4[C@@]5(C)CC[C@H](O)C(C)(C)C5CC[C@]43C)C2C1 (stereo partly specified) | > 4 mM (inactive)
53 | C/C=C(\C)c1nnc(NC(=O)C(C)C)s1 | > 4 mM (inactive)
54 | O=C(Nc1ccon1)c1cccc(C(F)(F)F)c1 | > 4 mM (inactive)
55 | Nc1cc(N)nc(SCc2ccccc2)n1 | > 4 mM (inactive)
56 | COc1ccccc1NC(=O)C1CCC(=O)N1 (stereo unspecified) | > 4 mM (inactive)
57 | CN(C)C(=O)CSc1cccc2cccnc12 | > 4 mM (inactive)
58 | O=c1c2ccccc2nc2n1CCS2 | > 4 mM (inactive)
59 | c1cc(C(N2CCOCC2)N2CCOCC2)ccn1 | > 4 mM (inactive)
60 | CN1CCN(S(=O)(=O)c2ccc(=O)[nH]c2)CC1 | > 4 mM (inactive)
61 | CSc1ncc(C(=O)O)n1Cc1ccccc1 | > 4 mM (inactive)
62 | CC(C)c1c(O)ccc2c1CCC1[C@@](C)(CO)CCC[C@]21C (stereo partly specified) | > 4 mM (inactive)
63 | O=C1N=c2ccccc2=C1c1sc(=S)[nH]c1O | > 4 mM (inactive)
64 | COC(=O)c1ccc2ncccc2c1 | > 4 mM (inactive)
65 | Cc1ncc(C(=O)O)c(-c2ccccc2)n1 | > 4 mM (inactive)
66 | CC(C)(C)CC(=O)NNC(=O)c1cnccn1 | > 4 mM (inactive)
67 | C=C1CCC2C(CC2(C)C)C(=C)CC/C1=N/O (stereo unspecified) | > 4 mM (inactive)
68 | NC(N)=Nc1nc2ccccc2o1 | > 4 mM (inactive)
69 | Cc1nc2nc(Cc3ccccc3)[nH]n2c(=O)c1Cl | > 4 mM (inactive)

Row | Compound | Kd
70 | CC(=O)c1ccc(NS(=O)(=O)c2cccc(C)c2)cc1 | > 4 mM (inactive)
71 | O=C(O)c1cncc(-c2ccccc2)c1 | > 4 mM (inactive)
72 | O=C(O)c1cncc(-c2cccs2)c1 | > 4 mM (inactive)
73 | CC1=C2C(=CO[C@H](C)[C@H]2C)C(=O)C(C(=O)O)=C1O | > 4 mM (inactive)
74 | COC(=O)c1sccc1S(=O)(=O)N1CCCC1 | > 4 mM (inactive)
75 | COc1ccc(Cc2nnc3c4cnn(C)c4ncn23)cc1 | > 4 mM (inactive)
76 | C[C@@H]1O[C@@H](O[C@H]2C[C@@H](O)[C@]3(CO)C4C(CC[C@]3(O)C2)[C@@]2(O)CC[C@H](C3=CC(=O)OC3)[C@@]2(C)C[C@H]4O)[C@H](O)[C@H](O)[C@H]1O (stereo partly specified) | > 4 mM (inactive)
77 | C=CC(=O)N1CC2CC(C1)c1cccc(=O)n1C2 (stereo unspecified) | > 4 mM (inactive)
78 | CCN1C(=O)c2c(C)nc3ccccc3c2C1=O | > 4 mM (inactive)
79 | Cn1c(=O)n(C)c2cc(C(N)=O)ccc21 | > 4 mM (inactive)
80 | CCn1cnc2cc([N+](=O)[O-])ccc2c1=O | > 4 mM (inactive)
81 | CS(=O)(=O)CCCCN=C=S | > 4 mM (inactive)
82 | OC[C@H]1O[C@@H](Oc2ccc(O)cc2)[C@H](O)[C@@H](O)[C@@H]1O | > 4 mM (inactive)
83 | COc1cccc2onc(N)c12 | > 4 mM (inactive)
84 | O=C1CCNc2ccccc2N1 | > 4 mM (inactive)
85 | CC(=O)O[C@H]1CC[C@@]2(C)C(CC[C@]3(C)C2CC=C2C4CC(C)(C)CC[C@]4(C)CC[C@]23C)C1(C)C (stereo partly specified) | > 4 mM (inactive)
86 | S=C(Nc1ccc2nccnc2c1)N1CCOCC1 | > 4 mM (inactive)
87 | O=C(Nc1cccnc1)c1cnn2cccnc12 | > 4 mM (inactive)
88 | c1ccc(CCNc2ncnc3nc[nH]c23)cc1 | > 4 mM (inactive)
89 | Oc1ccc([C@H]2Oc3cc(O)cc(O)c3C[C@H]2O)cc1 | > 4 mM (inactive)
90 | Cc1oc2nc3c(c(=O)[nH]c(=O)n3C)n2c1C | > 4 mM (inactive)
91 | O=C1CSC(c2ccc3c(c2)OCO3)N1 (stereo unspecified) | > 4 mM (inactive)
92 | CC1(C)C=Cc2c(cc3occ(-c4ccc5c(c4)OCO5)c(=O)c3c2O)O1 | > 4 mM (inactive)

Row | Compound | Kd
93 | O=C(Nc1ccc2c(c1)CCC2)c1cnccn1 | > 4 mM (inactive)
94 | COC(=O)N1CCN(c2ccc(OC)cc2)CC1 | > 4 mM (inactive)
95 | NS(=O)(=O)c1ccc2c(c1)OCCO2 | > 4 mM (inactive)
96 | NC[C@H]1O[C@H](O[C@H]2[C@H](O)[C@@H](O[C@H]3O[C@H](CO)[C@@H](O)[C@H](N)[C@H]3O)[C@H](N)C[C@@H]2N)[C@H](N)[C@@H](O)[C@@H]1O | > 4 mM (inactive)
97 | Cc1ccccc1-n1c(N)cc(=O)[nH]c1=S | > 4 mM (inactive)
98 | O=C1CCC(c2cccs2)=NN1 | > 4 mM (inactive)
99 | CC(=O)Oc1cc2c(c(C)c1OC(C)=O)CC=C1[C@@]2(C)CC[C@@]2(C)C3C[C@](C)(C(=O)O)CC[C@]3(C)CC[C@]12C (stereo partly specified) | > 4 mM (inactive)
100 | C=C1C([C@]2(C)C(CC(=O)OC)[C@@](C)(COC(C)=O)OC(=O)C[C@@H]2OC(C)=O)[C@@H](OC=O)[C@H](OC(=O)C(OC(C)=O)C(C)CC)[C@@]2(C)[C@H](c3ccoc3)CC(=O)C12O (stereo partly specified) | > 4 mM (inactive)
101 | O=C1NCCCC1C(=O)N1CCCCC1 (stereo unspecified) | > 4 mM (inactive)
102 | Cc1cc(C(=O)NCc2ccccc2Br)no1 | > 4 mM (inactive)
103 | O=C(Cc1cccs1)Nc1ccccn1 | > 4 mM (inactive)
104 | O=C(Nc1ccon1)c1ccc2c(c1)OCO2 | > 4 mM (inactive)
105 | O=C(N1CCOCC1)N1CCN(c2ccccn2)CC1 | > 4 mM (inactive)
106 | O=C(NCN1CCOCC1)c1cccnc1 | > 4 mM (inactive)
107 | COC(=O)NNc1ncnc(N)c1[N+](=O)[O-] | > 4 mM (inactive)
108 | Cc1ccc(OCC(=O)n2cnnc2N)c(C)c1 | > 4 mM (inactive)
109 | CC(=O)Nc1ccc(S(=O)(=O)N2CCN=C2C)cc1 | > 4 mM (inactive)
110 | Cc1cc(C(=O)NC(C)c2ccncc2)no1 (stereo unspecified) | > 4 mM (inactive)
111 | O=C(O)c1ccc(N2CCOCC2)nc1 | > 4 mM (inactive)
